Tests used:
[1] = molecular target: T1, Gamma-aminobutyric acid receptor subunit alpha-1 (Rattus norvegicus, UniProt P62813)
[2] = molecular target: T2, 5-hydroxytryptamine receptor 1A (Homo sapiens, UniProt P08908)
T2 sequence (P08908 whole entry): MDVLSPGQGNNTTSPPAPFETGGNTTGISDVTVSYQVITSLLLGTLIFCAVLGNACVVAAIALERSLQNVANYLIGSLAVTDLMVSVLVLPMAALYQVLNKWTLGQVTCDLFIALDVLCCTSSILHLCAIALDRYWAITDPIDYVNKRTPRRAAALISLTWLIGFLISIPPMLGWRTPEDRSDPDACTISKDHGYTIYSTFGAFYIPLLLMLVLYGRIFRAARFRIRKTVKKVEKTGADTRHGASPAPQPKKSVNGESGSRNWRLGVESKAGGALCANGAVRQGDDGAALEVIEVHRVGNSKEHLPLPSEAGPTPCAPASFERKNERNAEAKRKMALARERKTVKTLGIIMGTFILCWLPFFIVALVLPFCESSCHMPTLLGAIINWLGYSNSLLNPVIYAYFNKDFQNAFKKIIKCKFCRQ

[3] = molecular target: T1, Gamma-aminobutyric acid receptor subunit alpha-1; assay type: functional
Mu-type opioid receptor [4] = molecular target: T3, Mu-type opioid receptor (Homo sapiens, UniProt P35372)
D(1A) dopamine receptor [5] = molecular target: T4, D(1A) dopamine receptor (Homo sapiens, UniProt P21728); assay type: functional, cell-based
Cannabinoid receptor 1 [6] = molecular target: T5, Cannabinoid receptor 1 (Homo sapiens, UniProt P21554)
[7] = molecular target: T2, 5-hydroxytryptamine receptor 1A; assay type: functional, cell-based
[8] = molecular target: Glutamate receptor ionotropic, NMDA 1 (Rattus norvegicus, UniProt P35439)
[9] = molecular target: Voltage-dependent N-type calcium channel subunit alpha-1B (Rattus norvegicus, UniProt Q02294); assay type: functional
[10] = molecular target: T2, 5-hydroxytryptamine receptor 1A; assay type: functional, cell-based; remark: listed apart in the source
Mu-type opioid receptor [11] = molecular target: T3, Mu-type opioid receptor; remark: listed apart in the source
D(1A) dopamine receptor [12] = molecular target: T4, D(1A) dopamine receptor
D(3) dopamine receptor [13] = molecular target: T6, D(3) dopamine receptor (Homo sapiens, UniProt P35462)
[14] = molecular target: Neuronal acetylcholine receptor subunit alpha-4 (Homo sapiens, UniProt P43681)
[15] = molecular target: T7, Sodium-dependent dopamine transporter (Homo sapiens, UniProt Q01959)
[16] = molecular target: Kappa-type opioid receptor (Homo sapiens, UniProt P41145)
[17] = molecular target: T7, Sodium-dependent dopamine transporter; remark: listed apart in the source
D(3) dopamine receptor [18] = molecular target: T6, D(3) dopamine receptor; remark: listed apart in the source
[19] = molecular target: T8, 5-hydroxytryptamine receptor 2B (Homo sapiens, UniProt P41595); assay type: functional, cell-based
D(4) dopamine receptor = molecular target: T9, D(4) dopamine receptor (Homo sapiens, UniProt P21917)
T9 sequence (P21917 whole entry): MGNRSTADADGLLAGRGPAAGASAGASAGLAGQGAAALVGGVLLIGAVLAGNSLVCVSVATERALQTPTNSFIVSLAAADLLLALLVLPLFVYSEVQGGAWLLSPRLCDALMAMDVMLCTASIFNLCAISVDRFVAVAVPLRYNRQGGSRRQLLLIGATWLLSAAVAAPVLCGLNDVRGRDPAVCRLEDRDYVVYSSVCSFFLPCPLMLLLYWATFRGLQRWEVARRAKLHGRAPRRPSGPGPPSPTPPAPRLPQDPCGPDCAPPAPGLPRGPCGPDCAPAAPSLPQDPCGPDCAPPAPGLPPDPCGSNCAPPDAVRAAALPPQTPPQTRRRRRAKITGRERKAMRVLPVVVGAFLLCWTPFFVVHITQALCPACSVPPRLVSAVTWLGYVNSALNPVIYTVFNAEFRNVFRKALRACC

[20] = molecular target: T10, 5-hydroxytryptamine receptor 2C (Homo sapiens, UniProt P28335)
T10 sequence (P28335 whole entry): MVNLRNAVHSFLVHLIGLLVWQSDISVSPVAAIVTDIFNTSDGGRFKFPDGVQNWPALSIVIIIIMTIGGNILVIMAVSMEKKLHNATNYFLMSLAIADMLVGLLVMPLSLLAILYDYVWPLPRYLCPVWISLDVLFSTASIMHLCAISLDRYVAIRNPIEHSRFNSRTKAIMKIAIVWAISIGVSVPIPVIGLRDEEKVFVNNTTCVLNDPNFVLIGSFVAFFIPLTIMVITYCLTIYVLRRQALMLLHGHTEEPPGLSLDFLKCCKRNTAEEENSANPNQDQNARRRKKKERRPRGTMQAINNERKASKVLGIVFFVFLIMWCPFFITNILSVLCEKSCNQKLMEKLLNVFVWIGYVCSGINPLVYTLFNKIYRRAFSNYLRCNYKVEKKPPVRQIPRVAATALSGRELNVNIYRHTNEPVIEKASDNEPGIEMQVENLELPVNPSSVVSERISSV

Cannabinoid receptor 1 [21] = molecular target: T5, Cannabinoid receptor 1; assay type: functional, cell-based
[22] = molecular target: T8, 5-hydroxytryptamine receptor 2B
[23] = molecular target: T11, Sodium-dependent noradrenaline transporter (Homo sapiens, UniProt P23975)
[24] = molecular target: T8, 5-hydroxytryptamine receptor 2B; assay type: functional, cell-based; remark: listed apart in the source
[25] = molecular target: T2, 5-hydroxytryptamine receptor 1A; remark: listed apart in the source
D(1A) dopamine receptor [26] = molecular target: T4, D(1A) dopamine receptor; remark: listed apart in the source
[27] = molecular target: T8, 5-hydroxytryptamine receptor 2B; assay type: functional, cell-based; remark: listed apart in the source
[28] = molecular target: T11, Sodium-dependent noradrenaline transporter; remark: listed apart in the source
[29] = molecular target: T12, 5-hydroxytryptamine receptor 3A (Homo sapiens, UniProt P46098); assay type: functional
T12 sequence (P46098 whole entry): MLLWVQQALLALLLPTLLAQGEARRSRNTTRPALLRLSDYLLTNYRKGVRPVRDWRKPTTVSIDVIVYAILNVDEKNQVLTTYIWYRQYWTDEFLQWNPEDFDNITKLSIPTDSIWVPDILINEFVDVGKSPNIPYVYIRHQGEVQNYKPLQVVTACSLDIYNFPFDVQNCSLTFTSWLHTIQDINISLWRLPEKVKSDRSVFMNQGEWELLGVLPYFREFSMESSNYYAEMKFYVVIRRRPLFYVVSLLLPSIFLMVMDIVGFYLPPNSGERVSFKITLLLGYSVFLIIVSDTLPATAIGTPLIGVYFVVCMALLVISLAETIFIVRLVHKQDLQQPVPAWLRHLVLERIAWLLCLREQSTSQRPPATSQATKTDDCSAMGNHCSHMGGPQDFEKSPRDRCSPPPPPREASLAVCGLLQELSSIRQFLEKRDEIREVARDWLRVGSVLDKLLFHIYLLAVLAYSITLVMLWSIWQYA

[30] = molecular target: T1, Gamma-aminobutyric acid receptor subunit alpha-1; remark: listed apart in the source
[31] = molecular target: Delta-type opioid receptor (Homo sapiens, UniProt P41143)
D(1A) dopamine receptor [32] = molecular target: T4, D(1A) dopamine receptor; remark: listed apart in the source
Also: assay procedure not described here.

T1 sequence (P62813 whole entry): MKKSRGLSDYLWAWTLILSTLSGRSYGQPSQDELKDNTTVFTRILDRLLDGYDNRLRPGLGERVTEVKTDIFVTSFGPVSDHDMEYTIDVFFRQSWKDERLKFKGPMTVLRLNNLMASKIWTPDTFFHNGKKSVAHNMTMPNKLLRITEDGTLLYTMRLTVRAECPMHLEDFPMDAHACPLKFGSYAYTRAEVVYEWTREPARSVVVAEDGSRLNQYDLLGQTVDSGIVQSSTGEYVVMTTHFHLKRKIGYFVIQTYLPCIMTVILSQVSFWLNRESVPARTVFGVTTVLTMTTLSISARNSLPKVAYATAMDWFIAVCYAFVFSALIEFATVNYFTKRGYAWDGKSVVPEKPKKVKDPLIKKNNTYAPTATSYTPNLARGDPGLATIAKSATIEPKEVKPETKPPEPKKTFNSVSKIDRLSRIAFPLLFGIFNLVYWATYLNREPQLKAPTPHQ
T4 sequence (P21728 whole entry): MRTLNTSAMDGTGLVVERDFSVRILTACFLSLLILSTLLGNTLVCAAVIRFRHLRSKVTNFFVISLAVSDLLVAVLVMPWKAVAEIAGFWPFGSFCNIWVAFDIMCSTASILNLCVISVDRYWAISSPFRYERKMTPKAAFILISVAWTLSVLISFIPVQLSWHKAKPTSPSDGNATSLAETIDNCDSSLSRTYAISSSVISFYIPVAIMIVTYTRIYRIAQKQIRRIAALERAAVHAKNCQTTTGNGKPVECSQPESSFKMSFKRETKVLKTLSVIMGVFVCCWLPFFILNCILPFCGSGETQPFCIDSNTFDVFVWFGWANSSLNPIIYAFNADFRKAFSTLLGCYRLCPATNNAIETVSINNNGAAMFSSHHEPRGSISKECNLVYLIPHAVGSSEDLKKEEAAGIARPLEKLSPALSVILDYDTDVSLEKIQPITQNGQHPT
T8 sequence (P41595 whole entry): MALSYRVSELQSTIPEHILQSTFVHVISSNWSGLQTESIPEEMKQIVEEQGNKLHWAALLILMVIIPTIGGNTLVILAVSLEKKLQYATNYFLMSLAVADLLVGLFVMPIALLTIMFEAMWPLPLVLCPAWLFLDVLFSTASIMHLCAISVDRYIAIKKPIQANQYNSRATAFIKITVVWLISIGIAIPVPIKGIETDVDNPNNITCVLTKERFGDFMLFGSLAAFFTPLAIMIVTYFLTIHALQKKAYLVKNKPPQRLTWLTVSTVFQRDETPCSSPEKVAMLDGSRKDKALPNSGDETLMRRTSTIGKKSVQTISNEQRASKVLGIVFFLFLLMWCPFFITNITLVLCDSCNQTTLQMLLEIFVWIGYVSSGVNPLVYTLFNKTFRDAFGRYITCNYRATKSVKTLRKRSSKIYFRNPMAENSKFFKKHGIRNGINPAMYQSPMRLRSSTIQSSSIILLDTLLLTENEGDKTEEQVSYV
T11 sequence (P23975 whole entry): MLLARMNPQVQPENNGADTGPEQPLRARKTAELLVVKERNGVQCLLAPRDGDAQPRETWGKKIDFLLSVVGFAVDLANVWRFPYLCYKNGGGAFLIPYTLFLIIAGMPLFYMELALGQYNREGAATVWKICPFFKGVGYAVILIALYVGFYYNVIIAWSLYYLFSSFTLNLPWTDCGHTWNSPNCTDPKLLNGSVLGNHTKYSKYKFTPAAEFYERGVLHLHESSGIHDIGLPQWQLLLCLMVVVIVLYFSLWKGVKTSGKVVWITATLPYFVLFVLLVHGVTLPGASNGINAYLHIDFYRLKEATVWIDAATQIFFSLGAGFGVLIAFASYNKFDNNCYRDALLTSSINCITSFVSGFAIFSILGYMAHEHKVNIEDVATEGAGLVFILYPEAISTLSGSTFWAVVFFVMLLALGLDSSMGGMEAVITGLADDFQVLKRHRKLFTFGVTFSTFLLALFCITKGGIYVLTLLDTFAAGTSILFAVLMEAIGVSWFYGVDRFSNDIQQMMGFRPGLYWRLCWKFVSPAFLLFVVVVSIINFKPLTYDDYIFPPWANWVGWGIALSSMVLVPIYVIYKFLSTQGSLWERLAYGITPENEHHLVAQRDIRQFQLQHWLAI
T6 sequence (P35462 whole entry): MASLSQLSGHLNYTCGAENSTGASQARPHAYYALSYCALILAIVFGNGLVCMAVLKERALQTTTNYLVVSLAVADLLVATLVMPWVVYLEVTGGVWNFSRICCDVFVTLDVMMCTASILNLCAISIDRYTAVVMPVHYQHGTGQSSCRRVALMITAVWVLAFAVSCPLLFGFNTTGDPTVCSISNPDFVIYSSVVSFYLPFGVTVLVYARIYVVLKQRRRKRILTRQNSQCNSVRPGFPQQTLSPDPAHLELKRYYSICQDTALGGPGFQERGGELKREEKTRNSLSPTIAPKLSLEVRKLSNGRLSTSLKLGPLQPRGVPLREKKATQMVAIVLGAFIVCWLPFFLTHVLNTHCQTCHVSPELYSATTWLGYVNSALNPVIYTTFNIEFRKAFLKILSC
T3 sequence (P35372 whole entry): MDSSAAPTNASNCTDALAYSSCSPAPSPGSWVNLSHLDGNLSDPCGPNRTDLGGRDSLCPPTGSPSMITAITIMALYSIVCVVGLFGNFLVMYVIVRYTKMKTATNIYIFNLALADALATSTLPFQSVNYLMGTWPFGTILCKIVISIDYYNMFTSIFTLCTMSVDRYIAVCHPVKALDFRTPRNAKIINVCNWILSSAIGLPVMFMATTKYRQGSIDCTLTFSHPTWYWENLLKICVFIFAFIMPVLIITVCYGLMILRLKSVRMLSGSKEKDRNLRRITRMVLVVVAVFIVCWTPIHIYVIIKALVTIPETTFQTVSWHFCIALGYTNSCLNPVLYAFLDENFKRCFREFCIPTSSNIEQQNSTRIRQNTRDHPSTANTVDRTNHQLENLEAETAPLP
T5 sequence (P21554 whole entry): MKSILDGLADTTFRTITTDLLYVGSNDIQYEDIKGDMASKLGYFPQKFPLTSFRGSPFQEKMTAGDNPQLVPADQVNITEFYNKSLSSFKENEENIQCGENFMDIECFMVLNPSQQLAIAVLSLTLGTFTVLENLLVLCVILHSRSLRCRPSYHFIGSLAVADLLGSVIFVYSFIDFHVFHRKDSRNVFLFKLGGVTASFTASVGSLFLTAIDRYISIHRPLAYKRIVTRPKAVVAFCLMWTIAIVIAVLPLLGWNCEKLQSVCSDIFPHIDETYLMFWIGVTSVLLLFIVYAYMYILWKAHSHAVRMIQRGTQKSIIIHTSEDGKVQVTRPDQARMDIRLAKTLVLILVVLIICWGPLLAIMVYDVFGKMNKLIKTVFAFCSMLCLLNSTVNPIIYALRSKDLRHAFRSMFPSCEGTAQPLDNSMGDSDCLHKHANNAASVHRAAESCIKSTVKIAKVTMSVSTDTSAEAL
T7 sequence (Q01959 whole entry): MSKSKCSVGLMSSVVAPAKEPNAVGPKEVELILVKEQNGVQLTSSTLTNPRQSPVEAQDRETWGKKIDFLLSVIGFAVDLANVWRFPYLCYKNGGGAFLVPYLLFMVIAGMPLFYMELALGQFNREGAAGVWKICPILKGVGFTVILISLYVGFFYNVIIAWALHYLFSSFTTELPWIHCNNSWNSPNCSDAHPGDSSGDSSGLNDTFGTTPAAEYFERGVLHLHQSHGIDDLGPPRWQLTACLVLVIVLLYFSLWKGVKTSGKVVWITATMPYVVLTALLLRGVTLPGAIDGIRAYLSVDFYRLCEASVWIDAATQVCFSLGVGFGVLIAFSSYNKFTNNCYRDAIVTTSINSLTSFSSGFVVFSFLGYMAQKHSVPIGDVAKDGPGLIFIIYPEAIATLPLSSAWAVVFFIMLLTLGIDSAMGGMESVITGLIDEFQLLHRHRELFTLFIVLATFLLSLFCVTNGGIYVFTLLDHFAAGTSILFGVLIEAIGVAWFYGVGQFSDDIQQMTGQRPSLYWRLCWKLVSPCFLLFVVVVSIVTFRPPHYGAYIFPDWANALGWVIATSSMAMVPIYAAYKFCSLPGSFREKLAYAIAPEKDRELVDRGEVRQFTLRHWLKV
Sequence of Neuronal acetylcholine receptor subunit alpha-4 (P43681 whole entry): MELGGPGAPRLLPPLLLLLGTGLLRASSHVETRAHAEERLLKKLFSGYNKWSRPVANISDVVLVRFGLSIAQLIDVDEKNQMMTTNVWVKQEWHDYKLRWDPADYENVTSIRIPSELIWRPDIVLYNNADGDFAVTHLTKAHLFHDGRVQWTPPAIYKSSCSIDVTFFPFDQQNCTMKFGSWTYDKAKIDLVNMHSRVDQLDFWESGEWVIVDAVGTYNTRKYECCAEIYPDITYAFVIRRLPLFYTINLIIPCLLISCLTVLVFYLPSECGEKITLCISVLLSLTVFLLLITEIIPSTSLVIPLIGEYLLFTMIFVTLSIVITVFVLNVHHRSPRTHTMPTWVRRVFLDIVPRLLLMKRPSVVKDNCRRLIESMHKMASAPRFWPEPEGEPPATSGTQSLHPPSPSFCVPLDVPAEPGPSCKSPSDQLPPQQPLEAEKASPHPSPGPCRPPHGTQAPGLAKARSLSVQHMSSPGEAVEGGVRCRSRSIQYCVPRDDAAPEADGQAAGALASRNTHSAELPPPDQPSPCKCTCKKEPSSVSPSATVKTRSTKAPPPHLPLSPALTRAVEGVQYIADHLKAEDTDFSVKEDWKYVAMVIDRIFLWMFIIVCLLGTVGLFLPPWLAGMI
Sequence of Delta-type opioid receptor (P41143 whole entry): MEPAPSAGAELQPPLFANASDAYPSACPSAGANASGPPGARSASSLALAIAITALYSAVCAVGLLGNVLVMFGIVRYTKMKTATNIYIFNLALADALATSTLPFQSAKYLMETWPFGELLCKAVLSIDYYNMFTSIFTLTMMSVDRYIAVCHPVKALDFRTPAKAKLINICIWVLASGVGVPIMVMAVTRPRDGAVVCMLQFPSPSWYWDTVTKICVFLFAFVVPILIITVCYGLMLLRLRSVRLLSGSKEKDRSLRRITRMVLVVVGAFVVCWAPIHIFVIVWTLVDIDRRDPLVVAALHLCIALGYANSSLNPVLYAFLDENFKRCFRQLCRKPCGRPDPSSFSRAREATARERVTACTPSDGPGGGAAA

In the case of `COC(=O)C1=C(C)NC(C)=C(C(=O)OC)C1c1ccccc1[N+](=O)[O-]` [NIFEDIPINE], the AC50 [1] is reported as > 30 µM, the AC50 [2] is reported as > 10 µM and the AC50 [3] is reported as > 10 µM. The AC50 (Mu-type opioid receptor [4]) was > 30 µM, the AC50 (D(1A) dopamine receptor [5]) was > 10 µM and the AC50 (Cannabinoid receptor 1 [6]) was > 10 µM. For the same molecule, the AC50 [7] was > 10 µM, the AC50 [8] was > 10 µM and the AC50 [9] was > 10 µM. For the same molecule, the AC50 [10] was > 10 µM, the AC50 (Mu-type opioid receptor [11]) was 11 µM and the AC50 (D(1A) dopamine receptor [12]) was > 10 µM. For the same molecule, the AC50 (D(3) dopamine receptor [13]) was > 10 µM, the AC50 [14] was > 10 µM and the AC50 [15] was > 30 µM. The AC50 [16] was > 10 µM, the AC50 [17] was > 10 µM and the AC50 (D(3) dopamine receptor [18]) was > 30 µM. For the same molecule, the AC50 [19] was > 30 µM, the AC50 (D(4) dopamine receptor) was > 10 µM and the AC50 [20] was > 30 µM. The AC50 (Cannabinoid receptor 1 [21]) was > 30 µM, the AC50 [22] was > 10 µM and the AC50 [23] was > 30 µM. The AC50 [24] was 6.8 µM, the AC50 [25] was > 30 µM and the AC50 (D(1A) dopamine receptor [26]) was > 30 µM. The AC50 [27] was > 10 µM, the AC50 [28] was > 10 µM and the AC50 [29] was > 30 µM. For the same molecule, the AC50 [30] was > 10 µM, the AC50 [31] was > 30 µM and the AC50 (D(1A) dopamine receptor [32]) was 26 µM.

— ChEMBL document CHEMBL5291721, “A preclinical secondary pharmacology resource illuminates target-adverse drug reaction associations of marketed drugs” (Nat Commun, 2023)
